# Data reported in patent US10517913B2, “Composition for prevention, alleviation, or treatment of peripheral neuropathy comprising Lithospermi Radix extract as an effective component” (priority 2015, dated 2019).
# Key:
# [1] = system: astrocytes and microglial cells in spinal cord of peripheral neuropathic animals induced by oxaliplatin; assay: Immunohistological analysis of glial cells (GFAP, Iba-1) in lumbar spinal cord; format: in vivo, C57BL/6 mice
# Source text: (§1) In the present invention, an animal model having peripheral neuropathy was induced by oxaliplatin. Eight-week old male C57BL/6 mice were purchased from the OrientBio. Following 1 week acclimation period in a cage in an animal test room, the base line (BL) of responses of experimental animals to 3 times of mechanical stimulations applied to the right hind footpad of the animal using von Frey filament hair. Then, the animals were divided into different groups (N=8 animals/group). Peripheral neuropathy was induced by injection of 5 mg/kg oxaliplatin through tail veins of animals (once a week, 2 times for 2 weeks, i.e., 10 mg/kg oxaliplatin in total). Oxaliplatin was purchased from the LC Laboratories.
# (§2) The specimens were prepared to histologically determine the protective effect of the Lithospermi Radix extract (WLR) against neuronal damage in peripheral neuropathic animals induced by oxaliplatin. Specifically, the animal was anaesthetized by intraperitoneal injection of sodium pentobarbital (50 mg/kg), and then, blood was removed by perfusion of 0.9% physiological saline through the aorta via left ventricle. Following fixation by perfusion of 4% paraformaldehyde solution buffered with 0.1 M phosphate, the 4th to 6th lumbar spinal cords, dorsal root ganglia, and the hind footpad skins were removed. The tissues were further fixed in the same fixation solution as above. The paraffin-embedded tissues were sectioned at a 4 μm thickness. The slices were mounted on a glass slide, dried, and then, kept at room temperature until use.
# The slice of spinal cord with 4 μm thickness was subjected to immunofluorescence staining using antibodies against GFAP and Iba-1 which are astrocyte and microglial cell markers, respectively. After removal of paraffin and hydration, the slice was immersed in citrate buffer solution (Vector Lab., USA) for 10 minutes in a microwave to recover antigenicity and increase reactivity. […]
# The activity of the glial cells was expressed by the ratio (%) of the area of stained cells relative to the viewing area under a fluorescence microscope. The fluorescence microscopic images were analyzed compared to the control treatment using a software (Cellsense, Olympus).
# Specifically, peripheral neuropathy was induced in male C57BL/6 mice by oxaliplatin (10 mg/kg) according to [Materials and Methods 4]. […] Using the obtained specimen, activation of astrocytes and microglial cells in dorsal horn areas of the lumbar spinal cord of the animals was measured by detecting GFAP and Iba-1 marker proteins, respectively, according to [Materials and Methods 6-2]. Distribution of intraepidermal nerve fiber (IENF) in the hind footpad skin was measured by detecting PGP9.5 marker protein according to [Materials and Methods 6-3].
# [2] = system: intraepidermal nerve fiber (IENF) of peripheral neuropathic animals induced by oxaliplatin; assay: Quantitative histological analysis of intraepidermal nerve fiber (PGP9.5) in hind footpad skin; format: in vivo, C57BL/6 mice
# Source text: as §1, with “Laboratories. […]” for “Laboratories.”
# The slice of hind footpad skin with 4 μm thickness was subjected to immunofluorescence staining using a PGP9.5 antibody, a marker for IENF in skin. […] The expression level of intraepidermal nerve fibers was expressed by the number of fluorescence-stained nerves in epidermis which were stemmed from dermis per field length of the basal membrane of epidermis (IENF/mm) within a viewing area under a fluorescence microscope. The fluorescent microscopic images were analyzed compared with control treatment using a software (Cellsense, Olympus). […]
# [3] = system: dorsal root ganglion (DRG) neurons of peripheral neuropathic animals induced by oxaliplatin; assay: Morphological cell analysis of dorsal root ganglion neurons; format: in vivo, C57BL/6 mice
# Source text: as §1, §2
# Dorsal root ganglions were cut out, sectioned into slices with 4 μm thickness and then, subjected to Azan-Mallory trichrome staining. The nucleoli in the stained slice were examined under an optical microscope. Among the neurons having discernible nucleoli, the number of neurons having eccentric nucleoli or multinucleolated nucleus was expressed as a percentage of the total neurons in a viewing area.
# Specifically, peripheral neuropathy was induced in male C57BL/6 mice by oxaliplatin (10 mg/kg) according to [Materials and Methods 4]. After that, the mice were orally administered 6 times per week with 250 mg/kg of a Lithospermi Radix extract (WLR) prepared in [Materials and Methods 1] or 0.5% carboxymethyl cellulose (CMC) as a negative control. In addition, 100 mg/kg amifostine was intraperitoneally administered 2 times per week as a positive control. After drug administration for 2 weeks, dorsal root ganglion (DRG) was cut out according to [Materials and Methods 6-1]. Using the obtained specimen, morphological change of nucleus and nucleoli in the dorsal root ganglion (DRG) neurons was observed according to [Materials and Methods 6-4].
# CYP1A2 = assay: Induction of CYP1A2 gene expression in HepaRG (real-time PCR); format: in vitro ADME, human; conditions: 50 μM omeprazole (positive control), 24 hours
# Experimental: (§3) HepaRG was purchased from the Thermo Fisher Scientific. The cells were used immediately after purchase without any subculture. A William's medium E basal medium supplemented with Thaw, Plate & General Purpose Supplements was used for general cell culture. A William's medium E basal medium supplemented containing Induction Medium Supplements was used for induction experiment. The cells were cultured in a 24-well culture plate coated with collagen type I in an incubator at 37° C., 5% CO2. All culture media and additives used for HepaRG cell culture were purchased from the Thermo Fisher Scientific.
# (§4) According to [Materials and Methods 3-4], human hepatoma cell line (HepaRG) were plated at 5×10^5 cells/ml in a 24-well plate coated with collagen type I and cultured for 72 hours at 37° C., 5% CO2. Then, the cells were treated for 24 hours with a positive control drug or with a Lithospermi Radix extract (WLR) at concentrations of 10, 20, 100, and 500 μg/ml. For a positive control drug, 50 μM omeprazole was used for CYP1A2 and CYP2B6, and 10 μM rifampicin was used for CYP3A4 and P-gp. Distilled water was used as a negative control. After 24 hours, total RNA was extracted using an Easy-Spin™ Total RNA extraction kit (iNtRON Biotechnology). cDNA was synthesized from total RNA (500 ng) using oligo dT and iScript cDNA synthesis kit (Bio-Rad). […]
# CYP2B6 = assay: Induction of CYP2B6 gene expression in HepaRG (real-time PCR); format: in vitro ADME, human; conditions: 50 μM omeprazole (positive control), 24 hours
# Experimental: as §3, §4
# PC-12 cells [4] = assay: Neurite outgrowth assay kit (NS225), qualitative analysis; format: cell-based; conditions: 200 nM oxaliplatin, NGF 100 ng/ml, 48 hours
# Experimental: (§5) PC-12 was purchased from the ATCC (USA). The cells were cultured in a 100 mm cell culture dish coated with collagen type I in an incubator at 37° C., 5% CO2, using a DMEM basal medium supplemented with 5% non-heat inactivated fetal bovine serum (FBS), 10% heat inactivated horse serum (HS), 100 unit/ml penicillin, and 100 μg/ml streptomycin. The basal medium, sera, and other additives were purchased from the Thermo Fisher Scientific.
# The neuroprotective effect of the Lithospermi Radix extract of the present invention was determined using a neurite outgrowth analysis kit (NS225, Millipore) with 1 μm pore-sized membrane.
# Specifically, PC-12 was cultured according to [Materials and Methods 3-1] for 72 hours in a DMEM low serum-differentiation medium supplemented with 1% horse serum, 100 unit/ml penicillin, 100 μg/ml streptomycin, and 100 ng/ml nerve growth factor (NGF). The membrane with 1 μm pores was coated by immersing it in a 24-well plate containing a 10 μg/ml collagen solution in an amount of 400 μl/well for 2 hours at 37° C. The collagen-coated membrane was transferred to a well containing a 600 μl of differentiation medium, and then, the differentiated PC-12 cells for 72 hours were plated at 75,000 cells/100 μl/membrane. The cells were treated with 200 nM oxaliplatin to induce neurotoxicity. […]
# PC-12 cells [5] = assay: NGF-induced neurite growth, quantitative image analysis; format: cell-based; conditions: 200 nM oxaliplatin, NGF 100 ng/ml, 3 days
# Experimental: as §5
# Specifically, PC-12 cells cultured according to [Materials and Methods 3-1] were evenly plated at 1×10^4 cells/well on a 24-well plate coated with collagen type IV in a DMEM growth medium where the cells were allowed to adhere on the bottom of the plate. After 12 hours, the medium was exchanged with a serum-free DMEM medium containing 100 ng/ml nerve growth factor (NGF) to induce neurite growth. The cells were treated with 200 nM oxaliplatin (Oxal) to induce neurotoxicity. Cells were co-treated with the Lithospermi Radix extract (WLR) prepared according to [Materials and Methods 1] at concentrations of 25 and 100 μg/ml, and amifostine (Ami) at 500 μM as a positive control. After 3 days, the ratios of cells forming neurites and the lengths of the neurites were quantified using image analysis under an optical microscope.
# [6] = system: human lung cancer cells (A549); assay: Drug-herb interaction with oxaliplatin cytotoxicity (Ez-Cytox), A549; format: cell-based; conditions: oxaliplatin 0 to 100 μg/ml alone (No treat), 72 hours
# Experimental: (§6) A549 and HCT116 cells were purchased from the ATCC (USA). They were cultured in a 100 mm cell culture dish in an incubator at 37° C., 5% CO2, using an RPMI1640 basal medium supplemented with 10% heat inactivated FBS, 100 unit/ml penicillin, and 100 μg/ml streptomycin, and then used for in vitro tests. The basal medium, serum, and other additives were purchased from the Thermo Fisher Scientific.
# (§7) Specifically, human lung cancer cells (A549) and human colon cancer cells (HCT116) were cultured according to [Materials and Methods 3-3]. The cells were plated in a 96-well culture dish at 5,000 cells per well. After 24 hours, the cells were simultaneously treated with serially diluted oxaliplatin (0 to 100 μg/ml) and the Lithospermi Radix extract (0(PBS), 10, 30, 100 μg/ml) prepared according to [Materials and Methods 1]. The cell only treated with oxaliplatin was served as a negative control. After 72 hours, the cell viability (%) was measured using Ez-Cytox assay kit. The rate of cell death (% death) caused by oxaliplatin was expressed by (100−cell viability (%)).
# [7] = system: human colon cancer cells (HCT116); assay: Drug-herb interaction with oxaliplatin cytotoxicity (Ez-Cytox), HCT116; format: cell-based; conditions: oxaliplatin 0 to 100 μg/ml alone (No treat), 72 hours
# Experimental: as §6, §7
# P-gp = assay: Induction of P-gp gene expression in HepaRG (real-time PCR); format: in vitro ADME, human; conditions: 10 μM rifampicin (positive control), 24 hours
# Experimental: as §3, §4
# [8] = after oxaliplatin 10 mg/kg, WLR 250 mg/kg oral 6 times per week or amifostine 100 mg/kg i.p. 2 times per week, 2 weeks
# [9] = oxaliplatin 10 mg/kg, lumbar spinal cord dorsal horn
compound,measurement,setting,value
NCCCNCCSP(=O)(O)O [amifostine],oxaliplatin-increased number of activated astrocytes (GFAP positive cells),[1]; [8],reduced to the same extent
same,oxaliplatin-increased number of activated microglial cells (Iba-1 positive cells),[1]; [8],reduced to the same extent
same,oxaliplatin-reduced densities of intraepidermal nerve fibers in hind footpad skin,[2]; [8],recovered
same,oxaliplatin-induced morphological change: DRG neurons having eccentric nucleoli,[3]; [8],reduced to the same extent
same,oxaliplatin-induced morphological change: number of neurons having multinucleolated nucleus,[3]; [8],decreased with statistical significance
COc1ccc2[nH]c([S+]([O-])Cc3ncc(C)c(OC)c3C)nc2c1 (centres unmarked) [omeprazole],expression of CYP1A2,CYP1A2,effectively enhanced
same,expression of CYP2B6,CYP2B6,effectively enhanced
O=C1[O][Pt]2([NH][C@@H]3CCCC[C@H]3[NH]2)[O]C1=O [oxaliplatin],Nerve growth factor-induced neurite growth,PC-12 cells [4],inhibited
same,neurite growth induced by nerve growth factor (NGF),PC-12 cells [5],inhibited
same,number of activated astrocytes (GFAP positive cells),[1]; [9],increased
same,number of activated microglial cells (Iba-1 positive cells),[1]; [9],increased
same,densities of intraepidermal nerve fibers in hind footpad skin,[2]; oxaliplatin 10 mg/kg,reduced
same,frequency of DRG neurons having eccentric nucleoli,[3]; oxaliplatin 10 mg/kg,increased
same,frequency of DRG neurons having multinucleolated nucleus,[3]; oxaliplatin 10 mg/kg,increased
same,growth of cancer cells,[6],inhibited
same,growth of cancer cells,[7],inhibited
CO[C@H]1/C=C/O[C@@]2(C)Oc3c(C)c(O)c4c(O)c(c(/C=N/N5CCN(C)CC5)c(O)c4c3C2=O)NC(=O)/C(C)=C\C=C\[C@H](C)[C@H](O)[C@@H](C)[C@@H](O)[C@@H](C)[C@H](OC(C)=O)[C@@H]1C [rifampicin],expression of P-gp,P-gp,effectively enhanced
